{"source": "patent US20260102407A1", "about": "“TREATMENT METHODS” (priority 2020, published 2026)", "key": {"[1]": {"test_system": "HMEC-1", "experiment": "Endothelial proliferation assay using the Countess system with Trypan Blue exclusion", "format": "cell-based, human", "details": "5% FBS, 0.1-0.6 μM, 24 h", "protocol": "Endothelial proliferation assay using the Countess system. HMEC-1 proliferation was assessed using a Countess II Automated Cell Counter (ThermoFisher Scientific). Briefly, HMEC-1 (3×10^5 cells/well) were seeded in a 12-well plate. Cells were serum-deprived for 24 h in MCDB131 medium which contained 10 ng/ml EGF and 1 μg/ml hydrocortisone then treated with compound (0.1-0.6 μM) in medium containing 5% FBS, 10 ng/ml EGF and 1 μg/ml hydrocortisone. The cells were trypsinized after 24 h, resuspended in complete medium, a 10 μl aliquot was combined with an equal volume of […], and total cell numbers and Trypan Blue-excluding cells as a proportion of total was determined using the Countess."}, "[2]": {"test_system": "ERK phosphorylation", "experiment": "Western blot, IL-1β-inducible ERK phosphorylation in HMEC-1", "format": "cell-based, human", "protocol": "Western blot analysis with extracts of cells treated with […]. HMEC-1 (80-90% confluency) were arrested in serum-free MCDB131 medium (Invitrogen, MD) without any growth factor for 48 h. Cells were treated with 30 μM compound in serum-free medium for 4 h, and incubated with 20 ng/ml IL-1β (Sigma, cat. SRE3083) in serum-free medium with the same concentration of compound for up to 4 h, unless otherwise indicated. Total protein was harvested as previously described using RIPA buffer with protease inhibitors. Proteins were resolved on 4-20% (w/v) SDS-polyacrylamide gradient gels and transferred to Immobilon-P PVDF membranes. Membranes were blocked with 5% skim milk and incubated with rabbit monoclonal FosB (cat. 2251S, 1:1000, Cell Signaling, USA), rabbit monoclonal VCAM-1 (cat. 13662S, 1:1000, Cell Signaling, USA), rabbit monoclonal p44/42 MAPK (cat. 4695S, 1:1000, Cell Signaling, USA), rabbit polyclonal p38 MAPK (cat. 9212S, 1:1000, Cell Signaling, USA), rabbit polyclonal SAPK/JNK (cat. 9252S, 1:1000, Cell Signaling, USA), rabbit monoclonal phospho-SAPK/JNK (cat. 4671S, 1:1000, Cell Signaling, USA), rabbit monoclonal phospho-p38 MAPK (cat. 4511S, 1:1000, Cell Signaling, USA), or, mouse monoclonal phospho-p44/42 MAPK antibodies (cat. 9106S, 1:2000, Cell Signaling, USA) at 4° C. overnight or mouse monoclonal β-actin antibodies (cat. A5316, 1:10000, Sigma-Aldrich) antibodies at 22° C. for 1 h. Membranes were then incubated with horseradish peroxidase conjugated secondary goat anti-rabbit (cat. P0448, 1:1000, DAKO Cytomation, Denmark) or goat anti-mouse (cat. P0447, 1:1000, DAKO Cytomation, Denmark) antibodies for 1 h. Chemiluminescence was detected using the Western Lightning Chemiluminescence system and ImageQuant™ LAS 4000 biomolecular imager. Band intensity in images generated with the LAS 4000 using the same settings were quantified by NIH ImageJ."}, "[3]": {"test_system": "VCAM-1", "experiment": "Western blot, IL-1β-inducible VCAM-1 expression in HMEC-1", "format": "cell-based, human", "protocol": "(§1) Western blot analysis with extracts of cells treated with IL-13. HMEC-1 (80-90% confluency) were arrested in serum-free MCDB131 medium (Invitrogen, MD) without any growth factor for 48 h. Cells were treated with 30 μM compound in serum-free medium for 4 h, and incubated with 20 ng/ml IL-1β (Sigma, cat. SRE3083) in serum-free medium with the same concentration of compound for up to 4 h, unless otherwise indicated. Total protein was harvested as previously described using RIPA buffer with protease inhibitors. Proteins were resolved on 4-20% (w/v) SDS-polyacrylamide gradient gels and transferred to Immobilon-P PVDF membranes. […] Chemiluminescence was detected using the Western Lightning Chemiluminescence system and ImageQuant™ LAS 4000 biomolecular imager. Band intensity in images generated with the LAS 4000 using the same settings were quantified by NIH ImageJ."}, "[4]": {"test_system": "p-p38", "experiment": "Western blot, IL-1β-inducible p-p38 in HMEC-1", "format": "cell-based, human", "details": "1-30 μM", "protocol": "as §1"}, "[5]": {"experiment": "BT2 formulation analysis by RRLC-MS/MS and LC/MS (stability)", "format": "physicochemical", "details": "for discrepancy in BT2 content: 6 weeks storage at 22° C.", "protocol": "BT2 formulation analysis using RRLC-MS/MS. A rapid resolution liquid chromatography/tandem mass spectrometry (RRLC-MS/MS) method was developed under GLP by Iris Pharma using an Agilent 1200 Triple Quad G6410B to determine BT2 content in heat-treated or non-heat treated BT2 formulations at 1 week (T1 week) or 6 weeks (T6 weeks) after preparation at room temperature. The formulations were heat (H)-treated (tubes placed in a 100° C. water bath for 10 min) or non-heat treated sonicated formulations of BT2 in saline containing 0.5% Tween 80 and 0.01% DMSO). Standard curves were constructed with 8 concentrations between the lower limit of quantification (LLOQ) and the upper limit of quantification (ULOQ). Evaluations were performed on 3 preparations at the same dilution. Chromatograms were integrated using MassHunter software. For BT2 content analysis (T1 week and T6 weeks), calculation of mean, SD, CV (%) and bias (%) were performed as follows: For T1, the theoretical concentration (i.e. the weighed/formulated material supplied) was used as reference to calculate the bias (%) of each preparation containing the test sample:\nStandard curves were fitted using Excel® version 2011. For each run, bias on back-calculated concentration of the standard curve and QC was determined, with back-calculated concentrations of the calibration standards being set within ±15% of the theoretical value, except for the LLOQ for which it was set within ±20%. At least 75% of the calibration standards, with a minimum of six, must have had to fulfil this criterion and the coefficient of determination (r^2) was set at ≥0.98.\nBT2 formulation analysis using liquid chromatography mass spectrometry (LC/MS). DMSO (100 μl) and samples (˜50 μl) were combined along with formic acid (1 μl). These solutions (10 μl) were further diluted with H2O:CH3CN (1:1) 0.1% formic acid (90 μl) for LC/MS analysis. Samples were separated by UPLC using an HPG-3400RS UPLC pump, autosampler and column compartment system (Thermo Scientific, CA). Samples (0.1 μl) were loaded onto a Hypersil Gold aQ column (2.1×50 mm) containing 1.9μ media (Thermo Scientific). Compounds were eluted using a linear gradient of H2O:CH3CN with A containing H2O (0.1% formic acid) and B containing H2O:CH3CN (1:4, 0.1% formic acid). The gradient was: T=0 min 2% B, T=20 min 75% B, T=23 min 95% B, T=25 min, 95% B, T=25.2 min 2% B, T=30 min, 2% at 200 μl/min over 30 min. The column oven was heated to 45° C. Positive ions were generated by electrospray and the QExactive Plus mass spectrometer (Thermo Fisher, Bremen, Germany) operated in data dependent acquisition mode (DDA). The heated electrospray source (HESI) was used with a high voltage 3.8 kV applied; a vaporizer temp of 250° C.; sheath gas 20; aux gas 5 and the heated capillary set to T=290° C. […]"}, "[6]": {"details": "30 μM, 20 ng/ml IL-1β up to 4 h"}}}
{"smiles": "CCOC(=O)Nc1ccc2c(c1)C(=O)N(CC)c1ccccc1O2", "note": "[BT2, (10-ethyl-11-oxo-10,11-dihydro-dibenzo[b,f][1,4]oxazepin-2-yl)-carbamic acid ethyl ester]", "values": [{"measurement": "Trypan Blue incorporation (% living cells)", "setting": "[1]", "result": "without affecting Trypan Blue incorporation"}, {"measurement": "serum-inducible proliferation, total cell numbers (Countess)", "setting": "[1]", "result": "inhibited serum-inducible proliferation"}, {"measurement": "IL-1β-inducible ERK phosphorylation (Western blot)", "setting": "[2]; [6]", "result": "inhibited"}, {"measurement": "inhibition of IL-1β-inducible ERK phosphorylation, potency relative to PD98059", "setting": "[2]; dose escalation 1-30 μM", "result": "more potently than PD98059"}, {"measurement": "IL-1β-inducible VCAM-1 expression (Western blot)", "setting": "[3]; [6]", "result": "inhibited"}, {"measurement": "inhibition of IL-1β-inducible VCAM-1, potency relative to PD98059", "setting": "[3]; dose escalation 1-30 μM", "result": "more potently than PD98059"}, {"measurement": "IL-1β-inducible p-p38", "setting": "[4]", "result": "no effect"}, {"measurement": "stability of formulation after autoclaving", "setting": "[5]; autoclaved (121° C., 15 psi, 20 min), 4 months storage at 22° C., LC/MS", "result": "remained stable"}, {"measurement": "discrepancy in BT2 content", "setting": "[5]; heat-treated formulation (100° C. for 10 min), RRLC-MS/MS", "result": 1, "unit": "%"}, {"measurement": "degradation of stored formulation", "setting": "[5]; heat-treated or not, storage up to 16 months, RRLC-MS/MS", "result": "no loss in biological efficacy or degradation"}, {"measurement": "discrepancy in BT2 content", "setting": "[5]; non-heat treated formulation, RRLC-MS/MS", "result": 0.2, "unit": "%"}]}
